The structures appear in SMILES notation.

This test concerns the target T1, human PAH with the R408W mutation (A375 R408W cells) (Homo sapiens, UniProt P00439, R408W).
T1 construct: expressed in transfected cells
T1 sequence (P00439 1-452 R408W): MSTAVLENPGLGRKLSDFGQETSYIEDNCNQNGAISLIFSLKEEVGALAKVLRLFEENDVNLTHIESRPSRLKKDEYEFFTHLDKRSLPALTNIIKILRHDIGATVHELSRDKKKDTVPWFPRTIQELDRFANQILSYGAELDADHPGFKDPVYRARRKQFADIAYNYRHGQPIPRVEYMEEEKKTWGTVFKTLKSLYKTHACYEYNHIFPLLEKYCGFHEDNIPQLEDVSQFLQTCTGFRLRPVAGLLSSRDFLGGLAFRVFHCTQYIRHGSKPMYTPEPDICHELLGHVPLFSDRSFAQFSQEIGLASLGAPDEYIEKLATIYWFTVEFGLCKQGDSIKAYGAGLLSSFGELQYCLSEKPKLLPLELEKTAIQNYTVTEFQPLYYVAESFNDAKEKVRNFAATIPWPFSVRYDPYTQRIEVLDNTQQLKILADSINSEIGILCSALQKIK
Kind of test: Cell Based Phenylalanine Flux Assay. Conditions: A375 R408W cells; 24 hrs with compound, then 20 μM sepiapterin and 800 μM 13C9,15N-Phenylalanine for 4 hours; 13C-Tyrosine by LC-MS; average where tested multiple times. In short, it runs like this:
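Stable R408W PAH A375 cells: 24 h compound pretreatment in duplicate, then 4 h with 800 μM isotope-labelled Phe and 20 μM sepiapterin. Labelled Tyr output by LC-MS; AC50 averaged where repeated.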
As to `O=C(c1cnn2cc(N3CCC(F)CC3)ccc12)N1CCc2[nH]cnc2[C@@H]1c1nc2c(F)cccc2o1` [Example 478, (R)-(4-(4-fluorobenzo[d]oxazol-2-yl)-6,7-dihydro-1H-imidazo[4,5-c]pyridin-5(4H)-yl)(6-(4-fluoropiperidin-1-yl)pyrazolo[1,5-a]pyridin-3-yl)methanone], the AC50 is ≥ 5000 nM.
Under `Cc1cccc2oc([C@H]3c4nc[nH]c4CCN3C(=O)c3nnc(-c4cnn(C)c4)o3)nc12` [Example 479, (R)-(5-(1-methyl-1H-pyrazol-4-yl)-1,3,4-oxadiazol-2-yl)(4-(4-methylbenzo[d]oxazol-2-yl)-6,7-dihydro-1H-imidazo[4,5-c]pyridin-5(4H)-yl)methanone] stands 500 to 1000 nM.
As for `Cc1cccc2oc([C@@H]3c4nc[nH]c4CCN3C(=O)c3nnc(-c4cnn(C)c4)o3)nc12` [Example 480, (S)-(5-(1-methyl-1H-pyrazol-4-yl)-1,3,4-oxadiazol-2-yl)(4-(4-methylbenzo[d]oxazol-2-yl)-6,7-dihydro-1H-imidazo[4,5-c]pyridin-5(4H)-yl)methanone], the AC50 was ≤ 500 nM.
For `Cc1cccc2oc([C@H]3c4nc[nH]c4CCN3C(=O)c3nnc(-c4ccccn4)o3)nc12` [Example 481, (R)-(4-(4-methylbenzo[d]oxazol-2-yl)-6,7-dihydro-1H-imidazo[4,5-c]pyridin-5(4H)-yl)(5-(pyridin-2-yl)-1,3,4-oxadiazol-2-yl)methanone] the value was 500 to 1000 nM; for `Cc1cccc2oc([C@@H]3c4nc[nH]c4CCN3C(=O)c3nnc(-c4ccccn4)o3)nc12` [Example 482, (S)-(4-(4-methylbenzo[d]oxazol-2-yl)-6,7-dihydro-1H-imidazo[4,5-c]pyridin-5(4H)-yl)(5-(pyridin-2-yl)-1,3,4-oxadiazol-2-yl)methanone], ≤ 500 nM.
Under `O=C(c1cnco1)N1CCc2[nH]cnc2[C@H]1c1nc2c(F)ccc(F)c2o1` [Example 483, (S)-(4-(4,7-difluorobenzo[d]oxazol-2-yl)-6,7-dihydro-1H-imidazo[4,5-c]pyridin-5(4H)-yl)(oxazol-5-yl)methanone] stands 500 to 1000 nM.
Under `O=C(c1cnco1)N1CCc2[nH]cnc2[C@@H]1c1nc2c(F)ccc(F)c2o1` [Example 484, (R)-(4-(4,7-difluorobenzo[d]oxazol-2-yl)-6,7-dihydro-1H-imidazo[4,5-c]pyridin-5(4H)-yl)(oxazol-5-yl)methanone] stands 1000 to 5000 nM.
Consider `Cn1nc(C(F)F)nc1C(=O)N1CCc2[nH]cnc2[C@@H]1c1nc2c(F)ccc(F)c2o1` [Example 485, (R)-(4-(4,7-difluorobenzo[d]oxazol-2-yl)-6,7-dihydro-1H-imidazo[4,5-c]pyridin-5(4H)-yl)(3-(difluoromethyl)-1-methyl-1H-1,2,4-triazol-5-yl)methanone], for which the AC50 is 1000 to 5000 nM.
With `Cn1nc(C(F)F)nc1C(=O)N1CCc2[nH]cnc2[C@H]1c1nc2c(F)ccc(F)c2o1` [Example 486, (S)-(4-(4,7-difluorobenzo[d]oxazol-2-yl)-6,7-dihydro-1H-imidazo[4,5-c]pyridin-5(4H)-yl)(3-(difluoromethyl)-1-methyl-1H-1,2,4-triazol-5-yl)methanone], the AC50 lay within 500 to 1000 nM.
For the compound `O=C(c1ccnn1C(F)F)N1CCc2[nH]cnc2[C@H]1c1nc2c(F)ccc(F)c2o1` [Example 487, (S)-(4-(4,7-difluorobenzo[d]oxazol-2-yl)-6,7-dihydro-1H-imidazo[4,5-c]pyridin-5(4H)-yl)(1-(difluoromethyl)-1H-pyrazol-5-yl)methanone], the AC50 is ≤ 500 nM.
Under `O=C(c1ccnn1C(F)F)N1CCc2[nH]cnc2[C@@H]1c1nc2c(F)ccc(F)c2o1` [Example 488, (R)-(4-(4,7-difluorobenzo[d]oxazol-2-yl)-6,7-dihydro-1H-imidazo[4,5-c]pyridin-5(4H)-yl)(1-(difluoromethyl)-1H-pyrazol-5-yl)methanone] stands 1000 to 5000 nM; under `O=C(c1ccnn1C(F)F)N1CCc2[nH]cnc2[C@H]1c1nc2c(F)cc(F)cc2o1` [Example 489, (S)-(4-(4,6-difluorobenzo[d]oxazol-2-yl)-6,7-dihydro-1H-imidazo[4,5-c]pyridin-5(4H)-yl)(1-(difluoromethyl)-1H-pyrazol-5-yl)methanone], 500 to 1000 nM.
As to `O=C(c1ccnn1C(F)F)N1CCc2[nH]cnc2[C@@H]1c1nc2c(F)cc(F)cc2o1` [Example 490, (R)-(4-(4,6-difluorobenzo[d]oxazol-2-yl)-6,7-dihydro-1H-imidazo[4,5-c]pyridin-5(4H)-yl)(1-(difluoromethyl)-1H-pyrazol-5-yl)methanone], the AC50 lay in the range of 1000 to 5000 nM.
For the compound `Cc1ccc2oc([C@@H]3c4nc[nH]c4CCN3C(=O)c3nnc(-c4cn[nH]c4)o3)nc2c1` [Example 491, (S)-(5-(1H-pyrazol-4-yl)-1,3,4-oxadiazol-2-yl)(4-(5-methylbenzo[d]oxazol-2-yl)-6,7-dihydro-1H-imidazo[4,5-c]pyridin-5(4H)-yl)methanone], the AC50 was 500 to 1000 nM.
For `Cc1ccc2oc([C@H]3c4nc[nH]c4CCN3C(=O)c3nnc(-c4cn[nH]c4)o3)nc2c1` [Example 492, (R)-(5-(1H-pyrazol-4-yl)-1,3,4-oxadiazol-2-yl)(4-(5-methylbenzo[d]oxazol-2-yl)-6,7-dihydro-1H-imidazo[4,5-c]pyridin-5(4H)-yl)methanone] the value was 1000 to 5000 nM; for `O=C(c1ocnc1C(F)F)N1CCc2[nH]cnc2[C@H]1c1nc2cccc(C(F)(F)F)c2o1` [Example 493, (S)-(4-(difluoromethyl)oxazol-5-yl)(4-(7-(trifluoromethyl)benzo[d]oxazol-2-yl)-6,7-dihydro-1H-imidazo[4,5-c]pyridin-5(4H)-yl)methanone], ≤ 500 nM.
For `O=C(c1ocnc1C(F)F)N1CCc2[nH]cnc2[C@@H]1c1nc2cccc(C(F)(F)F)c2o1` [Example 494, (R)-(4-(difluoromethyl)oxazol-5-yl)(4-(7-(trifluoromethyl)benzo[d]oxazol-2-yl)-6,7-dihydro-1H-imidazo[4,5-c]pyridin-5(4H)-yl)methanone], the AC50 is ≤ 500 nM.
For `Cc1nc(C(=O)N2CCc3[nH]cnc3[C@H]2c2nc3cccc(F)c3o2)n(C)n1` [Example 495, (S)-(1,3-dimethyl-1H-1,2,4-triazol-5-yl)(4-(7-fluorobenzo[d]oxazol-2-yl)-6,7-dihydro-1H-imidazo[4,5-c]pyridin-5(4H)-yl)methanone] the value was 1000 to 5000 nM; for `Cc1nc(C(=O)N2CCc3[nH]cnc3[C@@H]2c2nc3cccc(F)c3o2)n(C)n1` [Example 496, (R)-(1,3-dimethyl-1H-1,2,4-triazol-5-yl)(4-(7-fluorobenzo[d]oxazol-2-yl)-6,7-dihydro-1H-imidazo[4,5-c]pyridin-5(4H)-yl)methanone], 1000 to 5000 nM; for `Cn1nc(C2CC2)nc1C(=O)N1CCc2[nH]cnc2[C@H]1c1nc2cccc(F)c2o1` [Example 497, (S)-(3-cyclopropyl-1-methyl-1H-1,2,4-triazol-5-yl)(4-(7-fluorobenzo[d]oxazol-2-yl)-6,7-dihydro-1H-imidazo[4,5-c]pyridin-5(4H)-yl)methanone], 1000 to 5000 nM.
As to `Cn1nc(C2CC2)nc1C(=O)N1CCc2[nH]cnc2[C@@H]1c1nc2cccc(F)c2o1` [Example 498, (R)-(3-cyclopropyl-1-methyl-1H-1,2,4-triazol-5-yl)(4-(7-fluorobenzo[d]oxazol-2-yl)-6,7-dihydro-1H-imidazo[4,5-c]pyridin-5(4H)-yl)methanone], the AC50 lay within 1000 to 5000 nM.
For `Cc1cc(F)c2oc([C@@H]3c4nc[nH]c4CCN3C(=O)c3oc(C(C)(C)O)nc3C(F)F)nc2c1` [Example 499, (S)-(4-(difluoromethyl)-2-(2-hydroxypropan-2-yl)oxazol-5-yl)(4-(7-fluoro-5-methylbenzo[d]oxazol-2-yl)-6,7-dihydro-1H-imidazo[4,5-c]pyridin-5(4H)-yl)methanone] the value was ≤ 500 nM.
For the compound `Cc1cc(F)c2oc([C@H]3c4nc[nH]c4CCN3C(=O)c3oc(C(C)(C)O)nc3C(F)F)nc2c1` [Example 500, (R)-(4-(difluoromethyl)-2-(2-hydroxypropan-2-yl)oxazol-5-yl)(4-(7-fluoro-5-methylbenzo[d]oxazol-2-yl)-6,7-dihydro-1H-imidazo[4,5-c]pyridin-5(4H)-yl)methanone], the AC50 was ≤ 500 nM.
For `Cc1cc(F)c2oc([C@@H]3c4nc[nH]c4CCN3C(=O)c3ocnc3C(F)F)nc2c1` [Example 501, (S)-(4-(difluoromethyl)oxazol-5-yl)(4-(7-fluoro-5-methylbenzo[d]oxazol-2-yl)-6,7-dihydro-1H-imidazo[4,5-c]pyridin-5(4H)-yl)methanone] the value was ≤ 500 nM.
For the compound `Cc1cc(F)c2oc([C@H]3c4nc[nH]c4CCN3C(=O)c3ocnc3C(F)F)nc2c1` [Example 502, (R)-(4-(difluoromethyl)oxazol-5-yl)(4-(7-fluoro-5-methylbenzo[d]oxazol-2-yl)-6,7-dihydro-1H-imidazo[4,5-c]pyridin-5(4H)-yl)methanone], the AC50 is ≤ 500 nM.
Under `O=C(c1cnn2cc(N3CCOCC3)ccc12)N1CCc2[nH]cnc2[C@@H]1c1nc2c(F)cccc2o1` [Example 503, (R)-(4-(4-fluorobenzo[d]oxazol-2-yl)-6,7-dihydro-1H-imidazo[4,5-c]pyridin-5(4H)-yl)(6-morpholinopyrazolo[1,5-a]pyridin-3-yl)methanone] stands ≥ 5000 nM.

As a reminder, the AC50 is the concentration at which the activity in the assay is half-maximal.
